This passage reports LD99 results from ChEMBL document CHEMBL1141331, “Citromycetins and bilains A-C: new aromatic polyketides and diketopiperazines from Australian marine-derived and terrestrial Penicillium spp” (2007).

The nature of this assay: Cytotoxicity against mouse NS1 cells. Format: functional.
`Cc1cc(=O)c2c(o1)-c1cc(O)c(O)cc1OC2` [CITROMYCIN] came in with an LD99 of 0.1 µM.

For `C[C@@H]1CC(=O)C2=C(O1)c1cc(O)c(O)cc1OC2`, the LD99 came to 0.05 µM.

In the case of `CS[C@@H]1C(=O)N(C)[C@](Cc2ccc(OCC=C(C)C)cc2)(SC)C(=O)N1C` (relative stereo), the LD99 was 0.15 µM.
